We go through 13 compounds from patent US12516056B2, “Compounds for inhibition of janus kinase 1” (MANKIND PHARMA LTD., priority 2019, dated 2026).

One assay addresses T1, Recombinant TYK2 (Homo sapiens, UniProt P29597).
T1 construct: purchased Carna Biosciences
The assay is described as follows: JAK biochemical assay (LANCE Ultra TR-FRET), TYK2. The note with it: recombinant TYK2, TR-FRET; read-out: Biochemical Assay (μM) TYK2. In outline:
(§1)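 Kinase reactions ran in buffer of 50 mM HEPES pH 7.5 with 1 mM EGTA, 10 mM MgCl2, 2 mM DTT and 0.01% Tween-20, using recombinant enzyme. Phosphorylated ULight substrate was detected by TR-FRET, and compound effect expressed as % inhibition against vehicle.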

The target of the next assay is T2, Recombinant JAK1 (Homo sapiens, UniProt P23458).
T2 construct: purchased Carna Biosciences
The assay is described as follows: JAK biochemical assay (LANCE Ultra TR-FRET), JAK1. The note with it: recombinant JAK1, TR-FRET; read-out: Biochemical Assay (μM) JAK1. The procedure, abridged: as §1

The next assay addresses T3, Recombinant JAK2 (Homo sapiens, UniProt O60674).
T3 construct: purchased Carna Biosciences
Put plainly: JAK biochemical assay (LANCE Ultra TR-FRET), JAK2. The note with it: recombinant JAK2, TR-FRET; read-out: Biochemical Assay (μM) JAK2. The procedure, abridged: as §1

Assay [1] has as its system STAT5 phosphorylation by GMCSF in TF-1 cells. Put plainly: JAK cellular assay: STAT5 phosphorylation by GMCSF in TF-1 cells (HTRF). Format: cell-based. The note with it: Homo sapiens; TF-1 cells, GMCSF 5 ng/ml, pSTAT5 HTRF; read-out: Cell Based Assay (μM) TF-1/GMCSF/pSTAT5. Here is the method: TF-1 cells were starved overnight in OptiMEM medium with 0.5% charcoal stripped fetal bovine serum, 0.1 mM nonessential amino acids (NEAA), 1 mM sodium pyruvate and without phenol red in CO2 incubator maintained at 37° c. Next day, cells were resuspended in RPMI without phenol red and dispensed into a 96 well plate at a final cell density of 1,20,000 cells per well. Compounds were diluted in DMSO and added to cells and incubated for 30 minutes in CO2 incubator maintained at 37° c. Final DMSO concentration in cell based assay was 0.2%. Human recombinant cytokines, IL-6 (30 ng/ml) and GMCSF (5 ng/ml) were added to the plate containing cells along with compound and incubated for 20 minutes with gentle tapping at every 5 minutes once. Compound mediated effects on STAT3 and STAT5 phosphorylation was measured in the lysates prepared by using CISBIO pSTAT3 and pSTAT5 detection kits by HTRF method. Background signal obtained from cells which were not activated with cytokines, was subtracted from vehicle controls and compound treated wells.

The subject of assay [2] is STAT3 phosphorylation by IL-6 in TF-1 cells. Put plainly: JAK cellular assay: STAT3 phosphorylation by IL-6 in TF-1 cells (HTRF). The note with it: Homo sapiens, TF-1, TF-1 cells, IL-6 30 ng/ml, pSTAT3 HTRF; read-out: Cell Based Assay (μM) TF-1/IL-6/pSTAT3. Format: cell-based. In outline:
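TF-1 cells starved overnight in low-serum OptiMEM, then 120,000/well in RPMI, preincubated with compound 30 min at 37 °C (0.2% DMSO final). Stimulation 20 min with IL-6 30 ng/ml (pSTAT3) or GMCSF 5 ng/ml (pSTAT5); lysate phospho-STAT by HTRF, unstimulated background subtracted.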

For the next assay, the target named is T4, Recombinant JAK3 (Homo sapiens, UniProt P52333).
T4 construct: purchased Carna Biosciences
T4 sequence (P52333 1-1124): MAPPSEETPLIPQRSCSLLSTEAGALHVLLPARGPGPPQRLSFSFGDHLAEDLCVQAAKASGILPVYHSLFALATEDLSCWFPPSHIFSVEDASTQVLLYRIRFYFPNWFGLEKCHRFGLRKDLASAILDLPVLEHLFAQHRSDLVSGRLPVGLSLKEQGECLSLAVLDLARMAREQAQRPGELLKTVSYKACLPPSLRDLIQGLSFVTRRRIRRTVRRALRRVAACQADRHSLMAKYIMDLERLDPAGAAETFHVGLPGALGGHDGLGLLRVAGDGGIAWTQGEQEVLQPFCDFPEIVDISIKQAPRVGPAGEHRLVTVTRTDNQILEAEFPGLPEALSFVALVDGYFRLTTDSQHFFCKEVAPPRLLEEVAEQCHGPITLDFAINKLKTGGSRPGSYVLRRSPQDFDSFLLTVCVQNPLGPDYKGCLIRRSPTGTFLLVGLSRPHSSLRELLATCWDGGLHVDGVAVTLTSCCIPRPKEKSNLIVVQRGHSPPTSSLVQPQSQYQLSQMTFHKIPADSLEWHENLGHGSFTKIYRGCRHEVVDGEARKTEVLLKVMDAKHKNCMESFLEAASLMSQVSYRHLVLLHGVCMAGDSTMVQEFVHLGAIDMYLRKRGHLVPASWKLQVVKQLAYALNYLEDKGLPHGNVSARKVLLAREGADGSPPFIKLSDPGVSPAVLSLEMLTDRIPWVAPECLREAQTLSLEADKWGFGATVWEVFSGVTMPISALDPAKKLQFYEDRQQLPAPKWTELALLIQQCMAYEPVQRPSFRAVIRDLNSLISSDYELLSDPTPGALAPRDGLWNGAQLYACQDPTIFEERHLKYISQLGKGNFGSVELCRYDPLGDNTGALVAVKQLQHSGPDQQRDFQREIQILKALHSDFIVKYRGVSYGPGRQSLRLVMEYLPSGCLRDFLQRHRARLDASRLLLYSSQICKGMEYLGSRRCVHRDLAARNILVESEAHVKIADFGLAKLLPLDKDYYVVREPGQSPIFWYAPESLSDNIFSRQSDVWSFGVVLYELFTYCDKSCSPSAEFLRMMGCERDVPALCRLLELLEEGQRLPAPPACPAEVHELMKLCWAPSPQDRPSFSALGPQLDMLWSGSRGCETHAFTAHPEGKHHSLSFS
Put plainly: JAK biochemical assay (LANCE Ultra TR-FRET), JAK3. The note with it: recombinant JAK3, TR-FRET; read-out: Biochemical Assay (μM) JAK3. The procedure, abridged: as §1

T2 sequence (P23458 whole entry): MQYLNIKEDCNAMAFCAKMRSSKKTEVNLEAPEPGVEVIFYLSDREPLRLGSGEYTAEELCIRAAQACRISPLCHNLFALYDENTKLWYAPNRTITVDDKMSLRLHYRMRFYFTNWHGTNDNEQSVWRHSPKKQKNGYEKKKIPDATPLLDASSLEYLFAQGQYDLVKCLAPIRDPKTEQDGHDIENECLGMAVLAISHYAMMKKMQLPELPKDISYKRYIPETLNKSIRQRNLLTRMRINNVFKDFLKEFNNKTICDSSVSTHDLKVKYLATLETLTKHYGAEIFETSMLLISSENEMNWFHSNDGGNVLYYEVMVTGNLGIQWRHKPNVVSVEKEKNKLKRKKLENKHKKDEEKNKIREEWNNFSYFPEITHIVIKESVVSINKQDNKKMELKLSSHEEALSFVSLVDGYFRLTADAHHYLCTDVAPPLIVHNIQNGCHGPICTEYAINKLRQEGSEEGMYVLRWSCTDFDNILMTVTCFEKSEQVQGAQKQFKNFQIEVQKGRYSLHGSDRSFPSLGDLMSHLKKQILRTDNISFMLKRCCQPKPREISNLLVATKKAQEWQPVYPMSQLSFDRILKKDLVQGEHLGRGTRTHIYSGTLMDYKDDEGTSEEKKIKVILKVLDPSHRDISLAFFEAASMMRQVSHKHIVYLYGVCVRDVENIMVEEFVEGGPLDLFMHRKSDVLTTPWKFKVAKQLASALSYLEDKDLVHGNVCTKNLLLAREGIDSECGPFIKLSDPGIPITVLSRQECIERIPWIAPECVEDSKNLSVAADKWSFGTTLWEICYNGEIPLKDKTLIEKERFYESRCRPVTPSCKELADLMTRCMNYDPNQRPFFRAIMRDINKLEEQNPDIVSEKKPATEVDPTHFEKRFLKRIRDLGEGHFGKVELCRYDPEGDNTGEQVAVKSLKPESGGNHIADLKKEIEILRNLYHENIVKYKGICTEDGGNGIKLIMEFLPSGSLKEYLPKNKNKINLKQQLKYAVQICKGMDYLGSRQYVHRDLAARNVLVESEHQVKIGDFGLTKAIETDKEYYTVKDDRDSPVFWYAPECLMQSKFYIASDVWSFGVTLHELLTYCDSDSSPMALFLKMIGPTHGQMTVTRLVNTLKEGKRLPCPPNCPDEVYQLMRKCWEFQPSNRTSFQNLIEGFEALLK
T1 sequence (P29597 whole entry): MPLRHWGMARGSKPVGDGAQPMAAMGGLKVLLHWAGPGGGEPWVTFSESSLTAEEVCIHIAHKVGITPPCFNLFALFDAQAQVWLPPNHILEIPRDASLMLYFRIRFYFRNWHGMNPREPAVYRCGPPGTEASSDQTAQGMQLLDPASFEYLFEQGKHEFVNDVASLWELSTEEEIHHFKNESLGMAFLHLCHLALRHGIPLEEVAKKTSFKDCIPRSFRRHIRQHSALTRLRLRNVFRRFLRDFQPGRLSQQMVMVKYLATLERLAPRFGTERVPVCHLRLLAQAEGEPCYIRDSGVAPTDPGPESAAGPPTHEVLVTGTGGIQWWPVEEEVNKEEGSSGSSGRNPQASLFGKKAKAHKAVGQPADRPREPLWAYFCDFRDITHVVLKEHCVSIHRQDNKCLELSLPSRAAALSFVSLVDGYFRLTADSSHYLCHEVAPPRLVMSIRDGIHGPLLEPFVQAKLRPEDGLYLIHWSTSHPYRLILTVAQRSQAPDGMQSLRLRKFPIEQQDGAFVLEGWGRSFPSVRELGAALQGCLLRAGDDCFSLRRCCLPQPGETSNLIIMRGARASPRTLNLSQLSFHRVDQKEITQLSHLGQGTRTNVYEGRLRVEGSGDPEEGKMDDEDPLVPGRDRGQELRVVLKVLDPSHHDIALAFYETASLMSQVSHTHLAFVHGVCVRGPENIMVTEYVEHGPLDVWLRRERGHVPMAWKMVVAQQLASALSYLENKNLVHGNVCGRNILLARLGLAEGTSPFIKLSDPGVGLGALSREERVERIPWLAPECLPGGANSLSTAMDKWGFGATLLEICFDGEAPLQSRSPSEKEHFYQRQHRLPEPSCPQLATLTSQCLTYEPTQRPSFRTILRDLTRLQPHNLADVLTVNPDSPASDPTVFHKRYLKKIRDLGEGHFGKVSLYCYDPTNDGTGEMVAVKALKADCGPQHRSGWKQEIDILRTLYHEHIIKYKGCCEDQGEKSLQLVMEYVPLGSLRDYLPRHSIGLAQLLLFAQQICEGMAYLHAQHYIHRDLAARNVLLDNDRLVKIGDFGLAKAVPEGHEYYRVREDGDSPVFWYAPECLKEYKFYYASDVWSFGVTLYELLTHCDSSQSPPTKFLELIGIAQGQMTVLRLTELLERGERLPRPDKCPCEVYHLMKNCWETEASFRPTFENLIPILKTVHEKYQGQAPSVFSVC
T3 sequence (O60674 whole entry): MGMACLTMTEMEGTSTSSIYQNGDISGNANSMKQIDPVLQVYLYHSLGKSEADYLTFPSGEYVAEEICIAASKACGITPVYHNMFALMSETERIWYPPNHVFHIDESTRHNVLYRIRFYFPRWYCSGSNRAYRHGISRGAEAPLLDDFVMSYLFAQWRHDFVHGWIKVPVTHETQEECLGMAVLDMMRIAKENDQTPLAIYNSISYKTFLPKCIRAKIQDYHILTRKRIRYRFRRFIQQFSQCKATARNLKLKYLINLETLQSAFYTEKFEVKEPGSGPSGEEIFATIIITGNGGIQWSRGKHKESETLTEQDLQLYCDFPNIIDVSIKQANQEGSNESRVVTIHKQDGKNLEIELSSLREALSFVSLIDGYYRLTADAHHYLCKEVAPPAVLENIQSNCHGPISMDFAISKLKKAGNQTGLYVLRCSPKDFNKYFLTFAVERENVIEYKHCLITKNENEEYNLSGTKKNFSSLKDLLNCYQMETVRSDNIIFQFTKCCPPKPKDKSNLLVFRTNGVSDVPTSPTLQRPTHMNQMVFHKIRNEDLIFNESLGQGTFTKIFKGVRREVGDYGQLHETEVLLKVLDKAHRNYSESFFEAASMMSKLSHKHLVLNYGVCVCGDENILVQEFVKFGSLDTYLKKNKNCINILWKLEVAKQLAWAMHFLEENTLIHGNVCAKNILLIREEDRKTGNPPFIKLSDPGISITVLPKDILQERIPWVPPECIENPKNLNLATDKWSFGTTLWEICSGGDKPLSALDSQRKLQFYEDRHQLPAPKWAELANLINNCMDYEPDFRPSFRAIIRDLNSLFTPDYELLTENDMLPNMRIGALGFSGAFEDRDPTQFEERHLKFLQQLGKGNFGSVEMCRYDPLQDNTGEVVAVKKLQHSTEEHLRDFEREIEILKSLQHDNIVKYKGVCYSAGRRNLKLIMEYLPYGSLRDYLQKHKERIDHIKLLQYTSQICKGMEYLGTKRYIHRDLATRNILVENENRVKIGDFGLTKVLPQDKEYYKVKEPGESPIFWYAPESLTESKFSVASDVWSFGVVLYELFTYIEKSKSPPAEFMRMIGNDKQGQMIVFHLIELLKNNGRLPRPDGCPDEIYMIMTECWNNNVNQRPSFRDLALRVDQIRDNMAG

`FC(F)(F)C(CNC1CC1)c1ccc(-n2cc(-c3ccnc4[nH]cnc34)cn2)nc1` (stereo not drawn) [Example 1212, N-(2-(6-(4-(3H-imidazo[4,5-b]pyridin-7-yl)-1H-pyrazol-1-yl)pyridin-3-yl)-3,3,3-trifluoropropyl)cyclopropanamine]: the IC50 is > 0.5 µM on Recombinant TYK2; < 0.1 µM on Recombinant JAK1; < 0.1 µM on Recombinant JAK2; > 1 µM in assay [1]; > 0.75 µM in assay [2]; < 0.1 µM on Recombinant JAK3.

For `N#CC1(c2ccc(-n3cc(-c4ccnc5[nH]cnc45)cn3)nc2)CC1` [Example 1109, 1-(6-(4-(3H-imidazo[4,5-b]pyridin-7-yl)-1H-pyrazol-1-yl)pyridin-3-yl)cyclopropanecarbonitrile], the IC50 at Recombinant TYK2 is > 10 µM; on Recombinant JAK1 it was < 0.5 µM; on Recombinant JAK2 it was < 0.5 µM; in assay [1], > 10 µM; in assay [2], > 1 µM; at Recombinant JAK3, < 0.5 µM.

For the compound `CS(=O)(=O)CCC(C#N)c1ccc(-n2cc(-c3ccnc4[nH]cnc34)cn2)nc1` (stereo not drawn) [Example 1116, 2-(6-(4-(3H-imidazo[4,5-b]pyridin-7-yl)-1H-pyrazol-1-yl)pyridin-3-yl)-4-(methylsulfonyl) butanenitrile], the IC50 at Recombinant TYK2 is > 1 µM; on Recombinant JAK1 it was > 0.1 µM; at Recombinant JAK2, > 0.5 µM; in assay [1], > 10 µM; in assay [2], > 1 µM; on Recombinant JAK3 it was > 0.1 µM.

As for `CC(C)[C@H](C#N)NC(=O)n1cc(-c2ccnc3[nH]c(=O)[nH]c23)cn1` [Example 1049, N-((R)-1-cyano-2-methylpropyl)-4-(2,3-dihydro-2-oxo-1H-imidazo[4,5-b]pyridin-7-yl)-1H-pyrazole-1-carboxamide], the IC50 on Recombinant TYK2 is < 0.5 µM; at Recombinant JAK1, < 0.5 µM; at Recombinant JAK2, < 0.5 µM; in assay [1] it was > 10 µM; in assay [2], < 10 µM; on Recombinant JAK3, < 0.5 µM.

`NS(=O)(=O)CCC(c1ccc(-n2cc(-c3ccnc4[nH]cnc34)cn2)nc1)C(F)(F)F` (stereo not drawn) [Example 1141, 3-(6-(4-(3H-imidazo[4,5-b]pyridin-7-yl)-1H-pyrazol-1-yl)pyridin-3-yl)-4,4,4-trifluorobutane-1-sulfonamide]: the IC50 was > 1 µM at Recombinant TYK2; < 0.1 µM on Recombinant JAK1; < 0.1 µM at Recombinant JAK2; > 10 µM in assay [1]; < 1 µM in assay [2]; < 0.1 µM at Recombinant JAK3.

In the case of `CC(C)[C@@H](C#N)NC(=O)n1cc(-c2ccnc3[nH]cnc23)cn1` [Example 1073, N-((S)-1-cyano-2-methylpropyl)-4-(3H-imidazo[4,5-b]pyridin-7-yl)-1H-pyrazole-1-carboxamide], the IC50 is > 0.5 µM at Recombinant TYK2; > 1 µM at Recombinant JAK1; > 0.5 µM on Recombinant JAK2; > 10 µM in assay [1]; > 1 µM in assay [2]; > 0.5 µM on Recombinant JAK3.

Regarding `OC(c1ccc(-n2cc(-c3ccnc4[nH]cnc34)cn2)nc1)(C1CCCCC1)C(F)(F)F` (stereo not drawn) [Example 1130, 1-(6-(4-(3H-imidazo[4,5-b]pyridin-7-yl)-1H-pyrazol-1-yl)pyridin-3-yl)-1-cyclohexyl-2,2,2-trifluoroethanol], the IC50 was > 1 µM on Recombinant TYK2; > 0.1 µM on Recombinant JAK1; > 0.1 µM on Recombinant JAK2; > 10 µM in assay [1]; > 1 µM in assay [2]; > 0.1 µM on Recombinant JAK3.

For the compound `N#CC(NC(=O)n1cc(-c2ccnc3[nH]cnc23)cn1)c1ccccc1` (stereo not drawn) [Example 1070, N-(cyano(phenyl)methyl)-4-(3H-imidazo[4,5-b]pyridin-7-yl)-1H-pyrazole-1-carboxamide], the IC50 is > 0.5 µM at Recombinant TYK2; > 0.5 µM at Recombinant JAK1; < 0.5 µM on Recombinant JAK2; > 10 µM in assay [1]; > 10 µM in assay [2]; > 0.5 µM at Recombinant JAK3.

On to `CS(=O)(=O)CC(c1ccc(-n2cc(-c3ccnc4[nH]cnc34)cn2)nc1)C(F)(F)F` (stereo not drawn) [Example 1138, 7-(1-(5-(1,1,1-trifluoro-3-(methylsulfonyl)propan-2-yl)pyridin-2-yl)-1H-pyrazol-4-yl)-3H-imidazo[4,5-b]pyridine], for which the IC50 at Recombinant TYK2 was > 1 µM; on Recombinant JAK1, < 0.1 µM; at Recombinant JAK2, > 0.1 µM; in assay [1], > 10 µM; in assay [2], > 1 µM; at Recombinant JAK3 it was > 0.1 µM.

`CC1CN(C(=O)n2cc(-c3ccnc4[nH]cnc34)cn2)CC1C#N` (stereo not drawn) [Example 1074, 1-(4-(3H-imidazo[4,5-b]pyridin-7-yl)-1H-pyrazole-1-carbonyl)-4-methylpyrrolidine-3-carbonitrile]: the IC50 on Recombinant TYK2 is > 1 µM; at Recombinant JAK1, > 10 µM; on Recombinant JAK2, > 1 µM; in assay [1] it was > 10 µM; in assay [2], > 10 µM; on Recombinant JAK3, > 1 µM.

As for `N#CC(c1ccc(-n2cc(-c3ccnc4[nH]cnc34)cn2)nc1)N1CCS(=O)(=O)CC1` (stereo not drawn) [Example 1113, 2-(6-(4-(3H-imidazo[4,5-b]pyridin-7-yl)-1H-pyrazol-1-yl)pyridin-3-yl)-2-(1,1-dioxidothiomorpholino)acetonitrile], the IC50 at Recombinant TYK2 is > 1 µM; on Recombinant JAK1 it was > 1 µM; on Recombinant JAK2, > 0.1 µM; in assay [1], > 10 µM; in assay [2], > 10 µM; at Recombinant JAK3, > 0.5 µM.

With `O=C(NCC(F)(F)F)C(c1ccc(-n2cc(-c3ccnc4[nH]cnc34)cn2)nc1)C1CC1` (stereo not drawn) [Example 1167, 2-(6-(4-(3H-imidazo[4,5-b]pyridin-7-yl)-1H-pyrazol-1-yl)pyridin-3-yl)-2-cyclopropyl-N-(2,2,2-trifluoroethyl)acetamide], the IC50 on Recombinant TYK2 was > 10 µM; at Recombinant JAK1, 0.096 µM; at Recombinant JAK2 it was 0.3 µM; in assay [1], > 10 µM; in assay [2], 10 µM; on Recombinant JAK3, 0.173 µM.

On to `CC(C)N1CCC(C(O)(c2ccc(-n3cc(-c4ccnc5[nH]cnc45)cn3)nc2)C(F)(F)F)CC1` (stereo not drawn) [Example 1240, 1-(6-(4-(3H-imidazo[4,5-b]pyridin-7-yl)-1H-pyrazol-1-yl)pyridin-3-yl)-2,2,2-trifluoro-1-(1-isopropylpiperidin-4-yl)ethanol], for which the IC50 on Recombinant TYK2 is > 1 µM; on Recombinant JAK1, > 0.01 µM; on Recombinant JAK2, > 0.03 µM; in assay [1] it was > 1 µM; in assay [2], > 0.5 µM; on Recombinant JAK3, > 0.03 µM.
